Data from patent publication US20100298144A1, “HERBICIDAL COMBINATION” (BAYER CROPSCIENCE AG, priority 2008, published 2010).

System: Polygonum convolvulus
Assay: Post-emergence action against weeds, greenhouse pot test, visual scoring
Assay type: in vivo
Conditions: 11 days after application, 0%=no control, 100%=complete control
Protocol: Seeds or rhizome pieces of monocotyledonous and dicotyledonous weeds were placed in sandy loam in plastic pots, covered with soil and cultivated in a greenhouse under good growth conditions. Three weeks after sowing, the test plants were treated at the 2-4 leaf stage. The compounds according to the invention, formulated as wettable powders or as emulsion concentrates, were sprayed onto the green parts of the plants at various dosages using a water application rate of from 100 to 800 I/ha (converted). After the test plants had been left to stand in the greenhouse for 10 to 28 days under optimum growth conditions, the effect of the preparations was scored visually in comparison to untreated controls.
0%=no control 100%=complete control

CP(=O)(O)CCC(N)C(=O)O (stereo not shown) [Compound B1-8, glufosinate-ammonium]
Polygonum convolvulus Control in % (Table 1, 150 g of ai/ha): 20%

glyphosate-ammonium [Compound B1-15]
Polygonum convolvulus Control in % (Table 2, 360 g of ai/ha): 55%

sodium salt of 2-iodo-N-[(4-methoxy-6-methyl-1,3,5-triazin-2-yl)carbamoyl]benzenesulfonamide [Compound A-2]
Polygonum convolvulus Control in % (Table 1, 2.5 g of ai/ha): 10%
Polygonum convolvulus Control in % (Table 2, 2.5 g of ai/ha): 20%
